Measurements taken from ChEMBL document CHEMBL2177046, “New aminoimidazoles as β-secretase (BACE-1) inhibitors showing amyloid-β (Aβ) lowering in brain” (J Med Chem, 2012).

Assays:
[1] = Dissociation constant, pKa of the compound by pressure-assisted capillary electrophoretic method; format: physicochemical
in vitro = details: human, Caco-2
[2] = Plasma concentration in C57BL/6 mouse at 30 umol/kg, iv at […]; format: ADME, organism-based
Brain [3] = test: Free drug concentration in C57BL/6 mouse brain at 30 umol/kg, iv at […]; format: ADME, organism-based; details: in vivo
[4] = Drug uptake in C57BL/6 mouse brain at 30 umol/kg, iv at […]; format: ADME, organism-based; details: read-out: Drug uptake
[5] = Ratio of free drug concentration in brain to free drug concentration in plasma in C57BL/6 mouse at 30 umol/kg, iv at […]; format: ADME, organism-based; details: brain and plasma, read-out: K(p,uu,brain)
Plasma [6] = test: Free plasma concentration in C57BL/6 mouse at 30 umol/kg, iv at […]; format: ADME, organism-based; details: in vivo
Plasma [7] = test: Free plasma concentration in C57BL/6 mouse at 100 umol/kg, po at […]; format: ADME, organism-based; details: in vivo
[8] = Drug uptake in C57BL/6 mouse brain at 100 umol/kg, po at […]; format: ADME, organism-based; details: read-out: Drug uptake
[9] = Ratio of free drug concentration in brain to free drug concentration in plasma in guinea pig; format: ADME, Cavia porcellus; details: brain and plasma, read-out: K(p,uu,brain)
[10] = Plasma concentration in C57BL/6 mouse at 100 umol/kg, po at […]; format: ADME, organism-based
Brain [11] = test: Free drug concentration in C57BL/6 mouse brain at 100 umol/kg, po at […]; format: ADME, organism-based; details: in vivo
[12] = Ratio of free drug concentration in brain to free drug concentration in plasma in C57BL/6 mouse at 100 umol/kg, po at […]; format: ADME, organism-based; details: brain and plasma, read-out: K(p,uu,brain)
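Throughout, for logD: lipophilicity determined by reversed-phase HPLC.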

Row | Compound | pKa [1] | Papp A→B at 10 µM (in vitro) | logD (physchem) | other results
1 | CC#Cc1cncc(-c2cc(C3(C4CC4)N=C(C)C(N)=N3)ccc2O)c1 (configuration not stated) | 5.9 | 2 ×10⁻⁶ cm/s | 1.2 | –
2 | CC#Cc1ccnc(-c2cc(C3(C4CC4)N=C(C)C(N)=N3)ccc2O)c1 (configuration not stated) | – | 19 ×10⁻⁶ cm/s | 2.9 | –
3 | CC1(c2cccc(-c3cccnc3)c2)N=C(N)C(c2ccccc2)=N1 (configuration not stated) | 5.4 | 46 ×10⁻⁶ cm/s | 2.1 | –
4 | CC(C)C1=NC(C)(c2cccc(-c3cccnc3)c2)N=C1N (configuration not stated) | 5.9 | 38 ×10⁻⁶ cm/s | 1.1 | –
5 | COc1cccc(-c2cccc(C3(C)N=C(C)C(N)=N3)c2)c1 (configuration not stated) | 6.5 | 34 ×10⁻⁶ cm/s | 2.2 | –
6 | CC1=NC(C)(c2cccc(-c3cccnc3)c2)N=C1N (configuration not stated) | 6.7 | 30 ×10⁻⁶ cm/s | 0.2 | –
7 | CC(C)C1=NC(c2ccccc2)(c2cccc(-c3cncnc3)c2)N=C1N (configuration not stated) | 5.2 | 30 ×10⁻⁶ cm/s | 2.4 | –
8 | COc1ccc(C2(c3cccc(-c4cncnc4)c3)N=C(N)C(C(C)C)=N2)cc1 (configuration not stated) | 5.3 | 30 ×10⁻⁶ cm/s | 2.4 | –
9 | CC1=NC(c2ccccc2)(c2cccc(-c3cccnc3)c2)N=C1N (configuration not stated) | – | – | 1.8 | –
10 | COc1cccc(-c2cccc(C3(c4ccncc4)N=C(C)C(N)=N3)c2)c1 (configuration not stated) | – | 40 ×10⁻⁶ cm/s | – | –
11 | CC1=NC(c2ccc(F)cc2)(c2cccc(-c3cccnc3)c2)N=C1N (configuration not stated) | 4.9 | 41 ×10⁻⁶ cm/s | 2 | –
12 | COc1ccc(C2(c3cccc(-c4cncnc4)c3)N=C(C)C(N)=N2)cc1 (configuration not stated) | 5.2 | 21 ×10⁻⁶ cm/s | 1.1 | –
13 | COc1ccc(C2(c3cccc(-c4cccnc4)c3)N=C(C)C(N)=N2)cc1 (configuration not stated) | 5.7 | 28 ×10⁻⁶ cm/s | 1.7 | concentration at […] [2]: 11500 nM; Drug uptake(free) (Brain [3]): 54 nmol/L; concentration at […] [4]: 710 nM; Kp uu at […] [5]: 0.08; Cp(f) (Plasma [6]): 720 nM
14 | COc1ccc(C2(c3cccc(-c4cncnc4)c3)N=C(C)C(N)=N2)cc1C (configuration not stated) | – | 19 ×10⁻⁶ cm/s | 1.7 | –
15 | COc1c(C)cc(C2(c3cccc(-c4cncnc4)c3)N=C(C)C(N)=N2)cc1C (configuration not stated) | 5.3 | 28 ×10⁻⁶ cm/s | 1.9 | –
16 | COc1c(C)cc([C@]2(c3cccc(-c4cncnc4)c3)N=C(C)C(N)=N2)cc1C | – | 21 ×10⁻⁶ cm/s | 1.8 | –
17 | COc1c(C)cc([C@@]2(c3cccc(-c4cncnc4)c3)N=C(C)C(N)=N2)cc1C | 5.2 | 22 ×10⁻⁶ cm/s | 1.8 | Cp(f) (Plasma [7]): 490 nM; concentration at […] [8]: 230 nM; Kp uu [9]: 0.16; concentration at […] [10]: 4500 nM; Drug uptake(free) (Brain [11]): 19 nmol/L; Kp uu at […] [12]: 0.05
18 | CC#Cc1cncc(-c2cccc(C3(c4cc(C)c(OC)c(C)c4)N=C(C)C(N)=N3)c2)c1 (configuration not stated) | – | 12 ×10⁻⁶ cm/s | 3.7 | –
19 | CC1=N[C@@](Cc2ccccc2)(c2cccc(-c3cncnc3)c2)N=C1N | 6 | 31 ×10⁻⁶ cm/s | 1.2 | –
20 | CC1=NC(c2cccc(-c3cncc(Cl)c3)c2)(C2CC2)N=C1N (configuration not stated) | – | 57 ×10⁻⁶ cm/s | 2 | concentration at […] [2]: 1200 nM; Drug uptake(free) (Brain [3]): 9 nmol/L; concentration at […] [4]: 180 nM; Kp uu at […] [5]: 0.16; Cp(f) (Plasma [6]): 60 nM
21 | CC1=NC(c2cccc(-c3cccnc3)c2)(C2CCCCC2)N=C1N (configuration not stated) | 6.2 | 41 ×10⁻⁶ cm/s | 2.6 | –
22 | COc1cccc(-c2cccc(C3(C4CCOCC4)N=C(C)C(N)=N3)c2)c1 (configuration not stated) | 6 | 22 ×10⁻⁶ cm/s | 2.5 | –
23 | COc1cccc(-c2cccc(C3(C4CCN(C(C)=O)CC4)N=C(C)C(N)=N3)c2)c1 (configuration not stated) | 5.7 | – | – | –
24 | CC#Cc1cncc(-c2cccc(C3(C4CC4)N=C(C)C(N)=N3)c2)c1 (configuration not stated) | 5.8 | 27 ×10⁻⁶ cm/s | 2.3 | concentration at […] [2]: 3700 nM; Drug uptake(free) (Brain [3]): 21 nmol/L; concentration at […] [4]: 980 nM; Kp uu at […] [5]: 0.07; Cp(f) (Plasma [6]): 310 nM
